Assay [1] concerns voltage-gated sodium channel (site 1, [3H]Saxitoxin binding). Set-up: species or system rat.
In assay [2] the test system is Male Sprague-Dawley rats. The settings on record: rat, in vivo.
In assay [3] the target is voltage-gated sodium channel. Conditions: cited from earlier work.

The values below come from patent US7868028B2 (priority 2002, dated 2011).

Several values for one entry are separate records, joined by “and”; a condition that tells them apart may be missing. Identical values can stand only once. Like-named read-outs stand apart in the source and are kept apart here.

For `Cl.N=c1n(Cc2ccccc2)c2ccccc2n1CC(O)c1ccc(Cl)c(Cl)c1` (racemic) [Compound 2], in assay [1], the “% inhibition” value stood at 46% and the IC50 worked out at 21 µM. In addition, in assay [2], the “Average % MPE 5 minutes” value stood at 100 % MPE and the “Average % MPE Day 4” value came out at 1 % MPE.
Consider `Cc1ccc(Cn2c(=N)n(CC(O)COc3ccccc3)c3ccccc32)cc1.Cl` (racemic) [Compound 4], for which, in assay [1], the “% inhibition” value turned out to be 47% and the IC50 was found to be 21 µM. Besides, in assay [2], the “Average % MPE 5 minutes” value is on record as 100 % MPE and the “Average % MPE Day 4” value is reported as −2 % MPE.
Consider `Cl.N=c1n(Cc2ccccc2)c2ccccc2n1CC(O)c1ccccc1` (racemic) [Compound 5], for which, in assay [1], the “% inhibition” value is listed as 38% and the 50% inhibitory concentration (IC50) turned out to be 41 µM. In addition, in assay [2], the “Average % MPE 5 minutes” value was determined as 100 % MPE and the “Average % MPE Day 4” value worked out at 7 % MPE.
Turning to `Cl.N=c1n(Cc2ccccc2)c2ccccc2n1CC(O)c1cccs1` (racemic) [Compound 6], in assay [1], the “% inhibition” value is 52% and the half-inhibitory concentration (IC50) was found to be 43 µM. The “Average % MPE 5 minutes” value in assay [2] was 93 % MPE and 80 % MPE and 100 % MPE.
Turning to `CCCCn1c(=N)n(CC(O)COc2ccccc2)c2ccccc21.Cl` (racemic) [Compound 8], in assay [1], the “% inhibition” value worked out at 41% and the IC50 was found to be 87 µM. Also, the “Average % MPE 5 minutes” value in assay [2] is reported as 100 % MPE.
With `CCCCn1c(=N)n(CC(O)COc2ccc(Cl)cc2)c2ccccc21.Cl` (racemic) [Compound 10], in assay [1], the “% inhibition” value was found to be 42% and the 50% inhibitory concentration (IC50) turned out to be 96 µM. In assay [2], the “Average % MPE 5 minutes” value is reported as 26 % MPE and the “Average % MPE Day 4” value is 19 % MPE.
Turning to `Cl.N=c1n(CCN2CCCCC2)c2ccccc2n1CC(O)COc1ccccc1` (racemic) [Compound 22], in assay [1], the “% inhibition” value worked out at 14% and the IC50 was 210 µM. The “Average % MPE 5 minutes” value in assay [2] is on record as 100 % MPE.
In the case of `Br.N=c1n(Cc2ccc(F)cc2)c2ccccc2n1CC(O)COc1ccccc1` (racemic) [Compound 70], in assay [1], the “% inhibition” value is 26% and the IC50 was determined as 97 µM. Besides, in assay [2], the “Average % MPE 5 minutes” value was 83 % MPE and the “Average % MPE Day 4” value is reported as 4 % MPE.
Take `Br.COc1ccc(Cn2c(=N)n(CC(O)COc3ccccc3)c3ccccc32)cc1` (racemic) [Compound 78]: in assay [1], the “% inhibition” value was determined as 17% and the IC50 came out at 67 µM. Also, in assay [2], the “Average % MPE 5 minutes” value was determined as 11 % MPE and the “Average % MPE Day 4” value was −4 % MPE.
Consider `Cl.N=c1n(Cc2ccccc2)c2ccccc2n1CC(O)COc1ccc(Cl)cc1` (centres unmarked) [Compound 1], for which, in assay [1], the “% inhibition” value came to 59% and the IC50 was 15 µM. In assay [2], the “Average % MPE 5 minutes” value stood at 100 % MPE and the “Average % MPE Day 4” value is 3 % MPE.
Regarding `Br.N=c1n(Cc2ccccc2)c2ccccc2n1CC(O)COc1ccccc1` (centres unmarked) [Compound 3, 1-benzyl-2-imino-3-(2-hydroxy-3-phenoxypropyl)benzimidazole hydrobromide], in assay [1], the “% inhibition” value amounted to 52% and the half-inhibitory concentration (IC50) was determined as 21 µM. The “Average % MPE 5 minutes” value in assay [2] (hydrobromide) is 76 % MPE and 100 % MPE.
As to `Cl.N=c1n(Cc2ccccc2)c2ccccc2n1CC(O)c1ccc(Cl)cc1` (centres unmarked) [Compound 7], in assay [1], the “% inhibition” value was found to be 51% and the concentration for half-maximal inhibition (IC50) was found to be 60 µM. In addition, in assay [2], the “Average % MPE 5 minutes” value worked out at 100 % MPE and the “Average % MPE Day 4” value was determined as 32 % MPE.
In the case of `CCn1c(=N)n(CC(O)c2ccc(Cl)c(Cl)c2)c2ccccc21.Cl` (centres unmarked) [Compound 9], in assay [1], the “% inhibition” value is 46% and the IC50 worked out at 89 µM. Further, in assay [2], the “Average % MPE 5 minutes” value is recorded as 100 % MPE and the “Average % MPE Day 4” value is reported as 34 % MPE.
For `Cc1ccc(Cn2c(=N)n(CC(O)c3ccc(Cl)c(Cl)c3)c3ccccc32)cc1.Cl` (centres unmarked) [Compound 11] the same measures were 48%, 155 µM, 34 % MPE and 18 % MPE.
For the compound `C=CCn1c(=N)n(CC(O)COc2ccccc2)c2ccccc21.Cl` (centres unmarked) [Compound 41], the “% inhibition” value in assay [1] is reported as 25%.
For `CCN(CC)CCn1c(=N)n(CC(O)c2ccc(Cl)c(Cl)c2)c2ccccc21.Cl` (centres unmarked) [Compound 42], in assay [1], the “% inhibition” value stood at 25%.
For `CCCn1c(=N)n(CC(O)c2ccccc2)c2ccccc21.Cl` (centres unmarked) [Compound 43], the “% inhibition” value in assay [1] worked out at 26%.
`COc1ccc(C(O)Cn2c(=N)n(CCN3CCCCC3)c3ccccc32)cc1.Cl` (centres unmarked) [Compound 45]: the “% inhibition” value in assay [1] is on record as 28%.
Turning to `C=CCn1c(=N)n(CC(O)c2ccc(OCC)cc2)c2ccccc21.Cl` (centres unmarked) [Compound 49], the “% inhibition” value in assay [1] amounted to 32%.
On to `Cc1ccc(Cn2c(=N)n(CC(O)COc3ccc(Cl)cc3)c3ccccc32)cc1.Cl` (centres unmarked) [Compound 52], for which, in assay [1], the “% inhibition” value is reported as 37%.
For the compound `CCCCn1c(=N)n(CC(O)c2ccc(Cl)cc2)c2ccccc21.Cl` (centres unmarked) [Compound 53], the “% inhibition” value in assay [1] is “— (key: —: A dash (-) indicates less than 10% inhibition was observed in this test)”.
`Cl.Cn1c(=N)n(CC(O)c2ccc(Cl)cc2)c2ccccc21` (centres unmarked) [Compound 54]: the “% inhibition” value in assay [1] was “— (key: —: A dash (-) indicates less than 10% inhibition was observed in this test)”.
On to `Cl.Cn1c(=N)n(CC(O)c2cccc3ccccc23)c2ccccc21` (centres unmarked) [Compound 58], for which the “% inhibition” value in assay [1] is reported as “— (key: —: A dash (-) indicates less than 10% inhibition was observed in this test)”.
Consider `CCCn1c(=N)n(CC(O)c2ccc(C)cc2)c2ccccc21.Cl` (centres unmarked) [Compound 60], for which, in assay [1], the “% inhibition” value is listed as “— (key: —: A dash (-) indicates less than 10% inhibition was observed in this test)”.
Consider `CCCn1c(=N)n(CC(C)O)c2ccccc21.Cl` (centres unmarked) [Compound 61], for which, in assay [1], the “% inhibition” value is “— (key: —: A dash (-) indicates less than 10% inhibition was observed in this test)”.
Same read-out and setting: in the case of `Cl.N=c1n(Cc2ccccc2)c2ccccc2n1CC(O)c1ccc(Br)cc1` (centres unmarked) [Compound 63] it was “— (key: —: A dash (-) indicates less than 10% inhibition was observed in this test)”.
As for `Cl.Cn1c(=N)n(CC(O)c2ccccc2)c2ccccc21` (centres unmarked) [Compound 65], the “% inhibition” value in assay [1] is “— (key: —: A dash (-) indicates less than 10% inhibition was observed in this test)”.
Consider `CC(O)Cn1c(=N)n(C)c2ccccc21.Cl` (centres unmarked) [Compound 66], for which, in assay [1], the “% inhibition” value was “— (key: —: A dash (-) indicates less than 10% inhibition was observed in this test)”.
Regarding `Cl.N=c1n(Cc2ccccc2)c2ccccc2n1CC(O)c1ccco1` (centres unmarked) [Compound 67], the “% inhibition” value in assay [1] is listed as “— (key: —: A dash (-) indicates less than 10% inhibition was observed in this test)”.
As for `Br.N=c1n(Cc2ccccc2)c2ccccc2n1CC(O)COCc1ccccc1` (centres unmarked) [Compound 71], in assay [1], the “% inhibition” value is reported as 34% and the IC50 was 30 µM. In assay [2], the “Average % MPE 5 minutes” value amounted to 100 % MPE and the “Average % MPE Day 4” value came to 2 % MPE.
`Br.CCCCCCCCn1c(=N)n(CC(O)COc2ccccc2)c2ccccc21` (centres unmarked) [Compound 72]: in assay [1], the “% inhibition” value is given as 20% and the IC50 amounted to 66 µM.
For `NC1=N[C@H](O)[C@H]2[C@H]3O[C@]4(O)O[C@@H]([C@@H](O)[C@@]2(N1)[C@@H]4O)[C@]3(O)CO` [TTX, tetrodotoxin], in assay [3], the Kd is 3 to 5 nM.
